# Measured values: patent US20250064941A1, “SIGLEC LIGANDS, CONJUGATES, AND METHODS OF USE THEREOF” (Osprey Biopharmaceuticals, Inc., priority 2023, published 2025)
# Tests used:
# [1] = target: T1, mouse Siglec-2-Fc-Avi (CD22) (Mus musculus, UniProt P35329); experiment: SPR binding affinity to mouse CD22; details: steady-state analysis
# T1 construct: made in house
# T1 sequence (P35329 22-708 limits assumed): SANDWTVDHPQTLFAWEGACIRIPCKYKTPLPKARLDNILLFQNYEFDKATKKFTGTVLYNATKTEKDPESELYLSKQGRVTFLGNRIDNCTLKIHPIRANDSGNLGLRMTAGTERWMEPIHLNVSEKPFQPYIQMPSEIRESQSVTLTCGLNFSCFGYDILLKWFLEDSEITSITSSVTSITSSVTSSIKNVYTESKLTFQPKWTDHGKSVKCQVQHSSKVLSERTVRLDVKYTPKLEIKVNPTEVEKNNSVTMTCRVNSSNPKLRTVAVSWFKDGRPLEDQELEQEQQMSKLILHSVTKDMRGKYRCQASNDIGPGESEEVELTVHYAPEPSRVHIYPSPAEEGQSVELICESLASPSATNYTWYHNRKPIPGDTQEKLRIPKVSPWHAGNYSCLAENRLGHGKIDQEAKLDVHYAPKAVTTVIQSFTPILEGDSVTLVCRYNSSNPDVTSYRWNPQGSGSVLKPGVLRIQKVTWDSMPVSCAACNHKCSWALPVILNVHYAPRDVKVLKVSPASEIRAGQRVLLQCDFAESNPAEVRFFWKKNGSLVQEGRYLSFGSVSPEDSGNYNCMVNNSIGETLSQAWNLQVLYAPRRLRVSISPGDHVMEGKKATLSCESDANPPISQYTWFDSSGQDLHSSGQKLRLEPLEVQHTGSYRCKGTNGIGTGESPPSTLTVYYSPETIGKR
# Procedure, shortened: (§1)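 Native sialic acid residues are removed from the receptor enzymatically (4 hours at 37° C.) prior to streptavidin capture of the biotinylated protein. Ligand compounds then flow over in HEPES-buffered saline, pH 7.5, containing 0.05% Tween-20 and 1% DMSO, and binding is evaluated at steady state.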
# [2] = target: T2, human Siglec-2/CD22 protein (Homo sapiens, UniProt P20273); experiment: SPR binding affinity to human CD22; details: steady-state analysis
# T2 construct: purchased Acro Biosystems SI2-H82E3
# T2 sequence (P20273 20-847): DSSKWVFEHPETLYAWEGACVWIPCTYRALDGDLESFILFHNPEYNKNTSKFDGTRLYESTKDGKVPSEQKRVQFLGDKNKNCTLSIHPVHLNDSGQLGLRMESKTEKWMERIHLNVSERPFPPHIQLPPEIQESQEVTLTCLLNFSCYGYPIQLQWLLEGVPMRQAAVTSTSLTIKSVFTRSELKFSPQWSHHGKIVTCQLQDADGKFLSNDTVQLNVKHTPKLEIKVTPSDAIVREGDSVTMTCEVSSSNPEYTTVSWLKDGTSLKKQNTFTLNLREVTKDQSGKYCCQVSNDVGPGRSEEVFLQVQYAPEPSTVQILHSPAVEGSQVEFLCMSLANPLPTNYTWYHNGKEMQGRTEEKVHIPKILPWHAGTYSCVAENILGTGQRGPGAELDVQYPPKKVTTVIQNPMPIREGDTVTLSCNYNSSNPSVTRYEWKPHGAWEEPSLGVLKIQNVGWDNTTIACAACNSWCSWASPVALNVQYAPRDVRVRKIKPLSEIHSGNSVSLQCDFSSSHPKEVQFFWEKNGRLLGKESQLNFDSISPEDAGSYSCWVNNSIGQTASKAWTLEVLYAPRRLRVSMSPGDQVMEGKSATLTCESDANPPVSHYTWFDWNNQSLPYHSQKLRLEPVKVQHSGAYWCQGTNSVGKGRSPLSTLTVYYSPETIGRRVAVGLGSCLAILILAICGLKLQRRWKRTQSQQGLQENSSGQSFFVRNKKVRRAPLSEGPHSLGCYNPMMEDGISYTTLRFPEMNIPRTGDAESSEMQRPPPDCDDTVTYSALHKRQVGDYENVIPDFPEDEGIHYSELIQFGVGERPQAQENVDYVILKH
# Procedure, shortened: as §1
# [3] = target: cynomolgus Siglec-2/CD22 (Macaca fascicularis, UniProt A0A2K5WCZ6); experiment: biochemical; type: binding; details: SPR, steady-state analysis; read-out: Affinity cyno CD22
# Protocol: Prior to immobilization, CD22 proteins were treated with SialoExo (Genovis, Cat #G1-SM1-020) for 4 hours at 37° C. to remove native sialic acid residues.
# Surface preparation for cyno CD22 protein consisted of amine coupling to Cytiva CM5 chip (Cytiva, Cat #BR100530) using the Cytiva amine coupling kit Type 2 (Cytiva, Cat #BR100633). Following the standard amine coupling protocols, EDC and NHS from the kit were mixed 1:1 and injected over flow cells 1 and 2. […] Any active carboxy groups were then capped with 1M Ethanolamine, pH 8.5 for 420s on flow cells 1 and 2.
# Binding experiments of Siglec-ligand conjugated proteins or Siglec ligand compounds were performed on the surfaces prepared above in 10 mM HEPES, 150 mM NaCl, 0.05% Tween-20, pH 7.5, 1% DMSO as the running buffer. […] The compounds were then allowed to dissociate from the surface for 120 seconds. […] Solvent correction was performed using 0.5, 1, 1.5, and 2% DMSO spike into running buffer without DMSO. […] Data was analyzed using steady-state analysis in Biacore Insight Evaluation Software, version 3.0 for Siglec ligand compounds.
# cynomolgus Siglec-2/CD22, sequence (A0A2K5WCZ6 entry or part of it): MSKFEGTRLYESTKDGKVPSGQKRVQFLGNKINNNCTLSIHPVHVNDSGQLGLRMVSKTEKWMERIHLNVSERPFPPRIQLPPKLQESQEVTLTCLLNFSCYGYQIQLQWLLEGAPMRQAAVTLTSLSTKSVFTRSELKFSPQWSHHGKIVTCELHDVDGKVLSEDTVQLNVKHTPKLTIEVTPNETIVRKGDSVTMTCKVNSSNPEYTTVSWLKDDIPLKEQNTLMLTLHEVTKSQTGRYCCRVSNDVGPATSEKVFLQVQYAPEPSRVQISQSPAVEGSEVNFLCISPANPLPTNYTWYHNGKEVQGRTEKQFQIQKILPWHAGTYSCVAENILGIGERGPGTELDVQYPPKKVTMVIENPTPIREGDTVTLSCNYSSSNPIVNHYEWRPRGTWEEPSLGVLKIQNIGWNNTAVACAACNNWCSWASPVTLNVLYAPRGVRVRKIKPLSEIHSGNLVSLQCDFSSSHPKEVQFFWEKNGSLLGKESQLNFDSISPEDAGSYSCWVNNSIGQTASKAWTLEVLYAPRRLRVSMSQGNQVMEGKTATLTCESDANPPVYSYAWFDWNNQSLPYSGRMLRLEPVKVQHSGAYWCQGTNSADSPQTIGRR
SMILES,Kd [1] [nM],Kd [2] [nM],Kd [3] [nM]
"CC(=O)NCCOCCOCCOCCOCCn1cc(CCCCCCO[C@]2(C(=O)O)C[C@H](O)[C@@H](NC(=O)CO)[C@H]([C@H](O)[C@H](O)CNC(=O)Cc3ccc(C(F)F)cc3)O2)nn1 [Compound 253, (2R,4S,5R,6R)-6-((1R,2R)-3-(2-(4-(difluoromethyl)phenyl)acetamido)-1,2-dihydroxypropyl)-4-hydroxy-5-(2-hydroxyacetamido)-2-((6-(1-(2-oxo-6,9,12,15-tetraoxa-3-azaheptadecan-17-yl)-1H-1,2,3-triazol-4-yl)hexyl)oxy)tetrahydro-2H-pyran-2-carboxylic acid]",< 1000,< 1000,< 1000
"CC(=O)NCCOCCOCCOCCOCc1cn(CCCCCCO[C@]2(C(=O)O)C[C@H](O)[C@@H](NC(=O)CO)[C@H]([C@H](O)[C@H](O)CNC(=O)Cc3ccc(Cl)cc3)O2)nn1 [Cpd. 246, (2R,4S,5R,6R)-6-((1R,2R)-3-(2-(4-chlorophenyl)acetamido)-1,2-dihydroxypropyl)-4-hydroxy-5-(2-hydroxyacetamido)-2-((6-(4-(15-oxo-2,5,8,11-tetraoxa-14-azahexadecyl)-1H-1,2,3-triazol-1-yl)hexyl)oxy) tetrahydro-2H-pyran-2-carboxylic acid]",< 1000,< 1000,< 1000
"CC(=O)NCCOCCOCCOCCOCCNC(=O)CCCCCCO[C@]1(C(=O)O)C[C@H](O)[C@@H](NC(=O)CO)[C@H]([C@H](O)[C@H](O)CNC(=O)Cc2ccc(C(F)F)cc2)O1 [Cpd. 257, (2R,4S,5R,6R)-6-((1R,2R)-3-(2-(4-(difluoromethyl)phenyl)acetamido)-1,2-dihydroxypropyl)-2-((2,19-dioxo-6,9,12,15-tetraoxa-3,18-diazapentacosan-25-yl)oxy)-4-hydroxy-5-(2-hydroxyacetamido)tetrahydro-2H-pyran-2-carboxylic acid]",1000 to 10000,< 1000,< 1000
"C#CCCCCCCc1cn([C@]2(C(=O)O)C[C@H](O)[C@@H](NC(=O)CO)[C@H]([C@H](O)[C@H](O)CNC(=O)Cc3cccc(O)c3)O2)nn1 [Compound 147, (2R,4S,5R,6R)-6-((1R,2R)-1,2-dihydroxy-3-(2-(3-hydroxyphenyl)acetamido)propyl)-4-hydroxy-5-(2-hydroxyacetamido)-2-(4-(oct-7-yn-1-yl)-1H-1,2,3-triazol-1-yl)tetrahydro-2H-pyran-2-carboxylic acid]",1000 to 10000,1000 to 10000,1000 to 10000
"CC(=O)NCCOCCOCCOCCOCCn1cc(CCCCCCO[C@]2(C(=O)O)C[C@H](O)[C@@H](NC(C)=O)[C@H]([C@H](O)[C@H](O)CNC(=O)c3cccc(Cl)c3)O2)nn1 [Compound 272, (2R,4S,5R,6R)-5-acetamido-6-((1R,2R)-3-(3-chlorobenzamido)-1,2-dihydroxypropyl)-4-hydroxy-2-((6-(1-(2-oxo-6,9,12,15-tetraoxa-3-azaheptadecan-17-yl)-1H-1,2,3-triazol-4-yl)hexyl)oxy)tetrahydro-2H-pyran-2-carboxylic acid]",> 10000,1000 to 10000,1000 to 10000
"CC(=O)NCCOCCOCCOCCOCCC(=O)NCCCCCCO[C@]1(C(=O)O)C[C@H](O)[C@@H](NC(=O)CO)[C@H]([C@H](O)[C@H](O)CNC(=O)Cc2ccc(Cl)cc2)O1 [Cpd. 244, (2R,4S,5R,6R)-6-((1R,2R)-3-(2-(4-chlorophenyl)acetamido)-1,2-dihydroxypropyl)-2-((2,18-dioxo-6,9,12,15-tetraoxa-3,19-diazapentacosan-25-yl)oxy)-4-hydroxy-5-(2-hydroxyacetamido) tetrahydro-2H-pyran-2-carboxylic acid]",< 1000,< 1000,< 1000
"C#CCCOc1ccc(CO[C@]2(C(=O)O)C[C@H](O)[C@@H](NC(=O)CO)[C@H]([C@H](O)[C@H](O)CNC(=O)C(OC)(c3ccccc3)C(F)(F)F)O2)cc1 (stereo partly drawn) [Compound 171, (2R,4S,5R,6R)-2-((4-(but-3-yn-1-yloxy)benzyl)oxy)-6-((1R,2R)-1,2-dihydroxy-3-(3,3,3-trifluoro-2-methoxy-2-phenylpropanamido)propyl)-4-hydroxy-5-(2-hydroxyacetamido)tetrahydro-2H-pyran-2-carboxylic acid]",1000 to 10000,1000 to 10000,1000 to 10000

# Now from value to molecule:
Kd [1] [nM],Kd [2] [nM],Kd [3] [nM],SMILES
< 1000,< 1000,< 1000,"C#CCOCCCCCCO[C@]1(C(=O)O)C[C@H](O)[C@@H](NC(=O)CO)[C@H]([C@H](O)[C@H](O)CNC(=O)Cc2ccc(-c3nnn[nH]3)cc2)O1 [Compound 176, (2R,4S,5R,6R)-6-((1R,2R)-3-(2-(4-(1H-tetrazol-5-yl)phenyl)acetamido)-1,2-dihydroxypropyl)-4-hydroxy-5-(2-hydroxyacetamido)-2-((6-(prop-2-yn-1-yloxy)hexyl)oxy)tetrahydro-2H-pyran-2-carboxylic acid]"
< 1000,< 1000,< 1000,"C#CCOCCNc1c(NCCCCCCO[C@]2(C(=O)O)C[C@H](O)[C@@H](NC(=O)CO)[C@H]([C@H](O)[C@H](O)CNC(=O)Cc3ccc(C(F)F)cc3)O2)c(=O)c1=O [Compound 216, (2R,4S,5R,6R)-6-((1R,2R)-3-(2-(4-(difluoromethyl)phenyl)acetamido)-1,2-dihydroxypropyl)-2-((6-((3,4-dioxo-2-((2-(prop-2-yn-1-yloxy)ethyl)amino)cyclobut-1-en-1-yl)amino)hexyl)oxy)-4-hydroxy-5-(2-hydroxyacetamido)tetrahydro-2H-pyran-2-carboxylic acid]"
< 1000,< 1000,< 1000,"O=C(O)CCCCCCCCCCCCCCCO[C@]1(C(=O)O)C[C@H](O)[C@@H](NC(=O)CO)[C@H]([C@H](O)[C@H](O)CNC(=O)Cc2ccc(Cl)cc2)O1 [Compound 99, (2R,4S,5R,6R)-2-((15-carboxypentadecyl)oxy)-6-((1R,2R)-3-(2-(4-chlorophenyl)acetamido)-1,2-dihydroxypropyl)-4-hydroxy-5-(2-hydroxyacetamido)tetrahydro-2H-pyran-2-carboxylic acid]"
> 10000,1000 to 10000,> 10000,"C#CCOCCOCCO[C@]1(C(=O)O)C[C@H](O)[C@@H](NC(=O)CO)[C@H]([C@H](O)[C@H](O)CNC(=O)Cc2ccc3c(c2)CC(=O)N3)O1 [Compound 11, (2R,4S,5R,6R)-6-((1R,2R)-1,2-dihydroxy-3-(2-(2-oxoindolin-5-yl)acetamido)propyl)-4-hydroxy-5-(2-hydroxyacetamido)-2-(2-(2-(prop-2-yn-1-yloxy)ethoxy)ethoxy)tetrahydro-2H-pyran-2-carboxylic acid]"
